Our source for the Ki values is patent publication US8435980B2 (AbbVie Inc., priority 2009, dated 2013).

A word on the Ki: it is a measure of affinity in units of concentration, obtained from inhibition or displacement. Read a high Ki as lower affinity.

This experiment concerns the target T1, Cdc7 (BEV coexpressed huCDC7/DBF4) (Homo sapiens, UniProt O00311).
T1 construct: made in house; host or cells: BEV (baculovirus expression vector) co-expression; insect cells are implied but no cell line is named
In words: Cdc7 enzyme inhibition assay ([33P]ATP, biotinylated peptide substrate, FlashPlate). The class given is biochemical. The note with it: Table 3; enzyme inhibition data (Ki). The protocol:
Cdc7 (BEV coexpressed huCDC7/DBF4) is prepared internally. Cdc7 assays are conducted as follows with final concentrations as listed. […] Reactions are quenched after 1 hr by the addition of 90 μL stop buffer (50 mM EDTA, 2M NaCl). […] (Ki) for exemplary compounds.

Each structure is given as a SMILES string.

T1 sequence (O00311 whole entry): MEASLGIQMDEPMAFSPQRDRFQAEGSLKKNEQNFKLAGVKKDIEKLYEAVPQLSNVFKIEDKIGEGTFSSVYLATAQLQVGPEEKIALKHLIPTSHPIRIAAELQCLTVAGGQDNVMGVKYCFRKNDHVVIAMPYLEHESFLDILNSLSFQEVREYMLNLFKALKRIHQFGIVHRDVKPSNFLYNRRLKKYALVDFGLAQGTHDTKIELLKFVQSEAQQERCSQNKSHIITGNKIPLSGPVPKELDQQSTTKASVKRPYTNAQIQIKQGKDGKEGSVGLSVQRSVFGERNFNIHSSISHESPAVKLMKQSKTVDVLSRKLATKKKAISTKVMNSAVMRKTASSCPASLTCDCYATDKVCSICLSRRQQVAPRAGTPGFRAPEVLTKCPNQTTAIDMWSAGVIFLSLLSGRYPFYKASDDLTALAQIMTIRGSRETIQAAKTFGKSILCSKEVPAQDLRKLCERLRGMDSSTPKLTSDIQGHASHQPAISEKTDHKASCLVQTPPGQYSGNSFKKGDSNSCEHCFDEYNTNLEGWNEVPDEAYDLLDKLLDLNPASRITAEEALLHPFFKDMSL
T1 sequence (Q9UBU7 whole entry partner): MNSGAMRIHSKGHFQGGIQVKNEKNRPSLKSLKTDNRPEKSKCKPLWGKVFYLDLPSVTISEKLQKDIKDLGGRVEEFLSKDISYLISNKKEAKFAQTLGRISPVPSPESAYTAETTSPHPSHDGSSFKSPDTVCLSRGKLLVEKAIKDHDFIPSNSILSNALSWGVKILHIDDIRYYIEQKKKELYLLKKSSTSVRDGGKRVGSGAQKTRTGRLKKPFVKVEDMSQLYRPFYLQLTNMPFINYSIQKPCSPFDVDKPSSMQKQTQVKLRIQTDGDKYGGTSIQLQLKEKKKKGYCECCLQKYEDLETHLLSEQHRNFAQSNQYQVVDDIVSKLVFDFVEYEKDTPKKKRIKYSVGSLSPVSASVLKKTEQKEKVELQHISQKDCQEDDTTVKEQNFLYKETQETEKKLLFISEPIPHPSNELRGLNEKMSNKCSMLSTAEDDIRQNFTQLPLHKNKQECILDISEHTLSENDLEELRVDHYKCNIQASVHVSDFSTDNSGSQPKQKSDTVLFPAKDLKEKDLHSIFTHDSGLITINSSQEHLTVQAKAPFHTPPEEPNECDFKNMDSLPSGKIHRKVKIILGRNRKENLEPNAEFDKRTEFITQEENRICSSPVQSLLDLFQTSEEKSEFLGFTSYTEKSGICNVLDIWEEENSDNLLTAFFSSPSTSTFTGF

The compound `O=C(CN1CCCC1)NC1CCCC(Nc2cc(-c3c[nH]c4ncccc34)cc(Cl)n2)C1` (stereo not drawn) [Example 130, N-(3-{[6-chloro-4-(1H-pyrrolo[2,3-b]pyridin-3-yl)pyridin-2-yl]amino}cyclohexyl)-2-(pyrrolidin-1-yl)acetamide] showed a Ki of under 10 nM.

As to `O=C(N[C@H]1CC[C@H](Nc2cc(-c3c[nH]c4ncccc34)cc(Cl)n2)CC1)C1CCC1` [Example 133, N-(trans-4-{[6-chloro-4-(1H-pyrrolo[2,3-b]pyridin-3-yl)pyridin-2-yl]amino}cyclohexyl)cyclobutanecarboxamide], the inhibition constant (Ki) was under 10 nM.

With `NC1(C(=O)NC2CCCC(Nc3cc(-c4c[nH]c5ncccc45)cc(Cl)n3)C2)CCC1` (stereo not drawn) [Example 135, 1-amino-N-(3-{[6-chloro-4-(1H-pyrrolo[2,3-b]pyridin-3-yl)pyridin-2-yl]amino}cyclohexyl)cyclobutanecarboxamide], the Ki is under 10 nM.

`O=C(CNC1CCCC1)N[C@H]1CC[C@H](Nc2cc(-c3c[nH]c4ncccc34)cc(Cl)n2)CC1` [Example 137, N-(trans-4-{[6-chloro-4-(1H-pyrrolo[2,3-b]pyridin-3-yl)pyridin-2-yl]amino}cyclohexyl)-N^2-cyclopentylglycinamide] came in with a Ki of under 10 nM.

Compound `CS(=O)(=O)N1CCCC(Nc2cc(-c3c[nH]c4ncccc34)cc(Cl)n2)C1` (stereo not drawn) [Example 138, 6-chloro-N-[1-(methylsulfonyl)piperidin-3-yl]-4-(1H-pyrrolo[2,3-b]pyridin-3-yl)pyridin-2-amine] had a Ki of under 10 nM.

`O=C1CC[C@@H](C(=O)NC2CCCC(Nc3cc(-c4c[nH]c5ncccc45)cc(Cl)n3)C2)N1` (stereo partly drawn) [Example 139, N-(3-{[6-chloro-4-(1H-pyrrolo[2,3-b]pyridin-3-yl)pyridin-2-yl]amino}cyclohexyl)-5-oxoprolinamide] returned a Ki of under 10 nM.

Turning to `O=C(CN1CCOCC1)N[C@H]1CC[C@H](Nc2cc(-c3c[nH]c4ncccc34)cc(Cl)n2)CC1` [Example 141, N-(trans-4-{[6-chloro-4-(1H-pyrrolo[2,3-b]pyridin-3-yl)pyridin-2-yl]amino}cyclohexyl)-2-(morpholin-4-yl)acetamide], the Ki was under 10 nM.

`O=C(CN1CCN(c2ccccn2)CC1)N[C@H]1CC[C@H](Nc2cc(-c3c[nH]c4ncccc34)cc(Cl)n2)CC1` [Example 142, N-(trans-4-{[6-chloro-4-(1H-pyrrolo[2,3-b]pyridin-3-yl)pyridin-2-yl]amino}cyclohexyl)-2-[4-(pyridin-2-yl)piperazin-1-yl]acetamide] returned a Ki of under 10 nM.

Consider `NC1CCC(CC2CCC(Nc3cc(-c4c[nH]c5ncccc45)cc(Cl)n3)CC2)CC1` (stereo not drawn) [Example 143, N-{4-[(4-aminocyclohexyl)methyl]cyclohexyl}-6-chloro-4-(1H-pyrrolo[2,3-b]pyridin-3-yl)pyridin-2-amine], for which the Ki is under 10 nM.

With `O=C1CC(C(=O)N[C@H]2CC[C@H](Nc3cc(-c4c[nH]c5ncccc45)cc(Cl)n3)CC2)CC(=O)N1` [Example 144, N-(trans-4-{[6-chloro-4-(1H-pyrrolo[2,3-b]pyridin-3-yl)pyridin-2-yl]amino}cyclohexyl)-2,6-dioxopiperidine-4-carboxamide], the Ki was under 10 nM.

As for `NCCS(=O)(=O)NC1CCCC(Nc2cc(-c3c[nH]c4ncccc34)cc(Cl)n2)C1` (stereo not drawn) [Example 145, 2-amino-N-(3-{[6-chloro-4-(1H-pyrrolo[2,3-b]pyridin-3-yl)pyridin-2-yl]amino}cyclohexyl)ethanesulfonamide], the Ki is under 10 nM.

Turning to `CN1CCCC(CNc2cc(-c3c[nH]c4ncccc34)cc(Cl)n2)C1` (stereo not drawn) [Example 146, 6-chloro-N-[(1-methylpiperidin-3-yl)methyl]-4-(1H-pyrrolo[2,3-b]pyridin-3-yl)pyridin-2-amine], the Ki is under 10 nM.

The compound `CC(=O)N1CCCC(Nc2cc(-c3c[nH]c4ncccc34)cc(Cl)n2)C1` (stereo not drawn) [Example 147, 1-(3-{[6-chloro-4-(1H-pyrrolo[2,3-b]pyridin-3-yl)pyridin-2-yl]amino}piperidin-1-yl)ethanone] yielded a Ki of under 10 nM.

On to `CN1CCC(N[C@H]2CC[C@H](Nc3cc(-c4c[nH]c5ncccc45)cc(Cl)n3)CC2)CC1` [Example 148, trans-N-[6-chloro-4-(1H-pyrrolo[2,3-b]pyridin-3-yl)pyridin-2-yl]-N′-(1-methylpiperidin-4-yl)cyclohexane-1,4-diamine], for which the inhibition constant Ki was under 10 nM.

In turn, `COc1cnc2[nH]cc(-c3cc(Cl)nc(N[C@H]4CC[C@H](O)CC4)c3)c2c1` [Example 149, trans-4-{[6-chloro-4-(5-methoxy-1H-pyrrolo[2,3-b]pyridin-3-yl)pyridin-2-yl]amino}cyclohexanol] returned a Ki of under 10 nM.

On to `O=C(CN1CCOCC1)Nc1cc(-c2c[nH]c3ncccc23)cc(Cl)n1` [Example 150, N-[6-chloro-4-(1H-pyrrolo[2,3-b]pyridin-3-yl)pyridin-2-yl]-2-(morpholin-4-yl)acetamide], for which the Ki was under 10 nM.

`O=C(CN[C@H]1CC[C@H](O)CC1)N[C@H]1CC[C@H](Nc2cc(-c3c[nH]c4ncccc34)cc(Cl)n2)CC1` [Example 152, N-(trans-4-{[6-chloro-4-(1H-pyrrolo[2,3-b]pyridin-3-yl)pyridin-2-yl]amino}cyclohexyl)-N^2-(trans-4-hydroxycyclohexyl)glycinamide] displayed a Ki of under 10 nM.

Consider `O=C(CNCCN1CCOCC1)N[C@H]1CC[C@H](Nc2cc(-c3c[nH]c4ncccc34)cc(Cl)n2)CC1` [Example 153, N-(trans-4-{[6-chloro-4-(1H-pyrrolo[2,3-b]pyridin-3-yl)pyridin-2-yl]amino}cyclohexyl)-N^2-[2-(morpholin-4-yl)ethyl]glycinamide], for which the Ki was under 10 nM.

`CN(C)C1CCC(CC2CCC(Nc3cc(-c4c[nH]c5ncccc45)cc(Cl)n3)CC2)CC1` (stereo not drawn) [Example 155, 6-chloro-N-(4-{[4-(dimethylamino)cyclohexyl]methyl}cyclohexyl)-4-(1H-pyrrolo[2,3-b]pyridin-3-yl)pyridin-2-amine] displayed a Ki of under 10 nM.

Consider `Clc1cc(-c2c[nH]c3ncccc23)cc(NC2CCC(CC3CCC(NC4CCCCC4)CC3)CC2)n1` (stereo not drawn) [Example 156], for which the Ki is under 10 nM.

`Clc1cc(-c2c[nH]c3ncccc23)cc(N[C@H]2CC[C@H](NC3CCN(C4CCCCC4)CC3)CC2)n1` [Example 157, trans-N-[6-chloro-4-(1H-pyrrolo[2,3-b]pyridin-3-yl)pyridin-2-yl]-N′-(1-cyclohexylpiperidin-4-yl)cyclohexane-1,4-diamine] showed an inhibitory constant (Ki) of under 10 nM.

In the case of `Clc1cc(-c2c[nH]c3ncccc23)cc(NC2CCC(C3CCNCC3)CC2)n1` (stereo not drawn) [Example 159, 6-chloro-N-[4-(piperidin-4-yl)cyclohexyl]-4-(1H-pyrrolo[2,3-b]pyridin-3-yl)pyridin-2-amine], the Ki is under 10 nM.

`O=C(N[C@H]1CC[C@H](Nc2cc(-c3c[nH]c4ncccc34)cc(Cl)n2)CC1)C1CNC1` [Example 160, N-(trans-4-{[6-chloro-4-(1H-pyrrolo[2,3-b]pyridin-3-yl)pyridin-2-yl]amino}cyclohexyl)azetidine-3-carboxamide] gave an inhibition constant (Ki) of under 10 nM.

In the case of `CC(=O)NC1CCC(N[C@H]2CC[C@H](Nc3cc(-c4c[nH]c5ncccc45)cc(Cl)n3)CC2)CC1` (stereo partly drawn) [Example 161, N-{4-[(trans-4-{[6-chloro-4-(1H-pyrrolo[2,3-b]pyridin-3-yl)pyridin-2-yl]amino}cyclohexyl)amino]cyclohexyl}acetamide], the Ki is under 10 nM.
